Experiment [1] addresses T1, Bromodomain-containing protein 4 (Homo sapiens, UniProt O60885). The experiment can be described thus: Displacement of FAM-labeled ZBA248 from BRD4 BD1 (44 to 168 amino acid residues) (unknown origin) expressed in Rosetta2 DE3 cells after 30 mins by fluorescence polarization assay.
The target of experiment [2] is T2, ATPase family AAA domain-containing protein 2B (Homo sapiens, UniProt Q9ULI0).
T2 sequence (Q9ULI0 whole entry): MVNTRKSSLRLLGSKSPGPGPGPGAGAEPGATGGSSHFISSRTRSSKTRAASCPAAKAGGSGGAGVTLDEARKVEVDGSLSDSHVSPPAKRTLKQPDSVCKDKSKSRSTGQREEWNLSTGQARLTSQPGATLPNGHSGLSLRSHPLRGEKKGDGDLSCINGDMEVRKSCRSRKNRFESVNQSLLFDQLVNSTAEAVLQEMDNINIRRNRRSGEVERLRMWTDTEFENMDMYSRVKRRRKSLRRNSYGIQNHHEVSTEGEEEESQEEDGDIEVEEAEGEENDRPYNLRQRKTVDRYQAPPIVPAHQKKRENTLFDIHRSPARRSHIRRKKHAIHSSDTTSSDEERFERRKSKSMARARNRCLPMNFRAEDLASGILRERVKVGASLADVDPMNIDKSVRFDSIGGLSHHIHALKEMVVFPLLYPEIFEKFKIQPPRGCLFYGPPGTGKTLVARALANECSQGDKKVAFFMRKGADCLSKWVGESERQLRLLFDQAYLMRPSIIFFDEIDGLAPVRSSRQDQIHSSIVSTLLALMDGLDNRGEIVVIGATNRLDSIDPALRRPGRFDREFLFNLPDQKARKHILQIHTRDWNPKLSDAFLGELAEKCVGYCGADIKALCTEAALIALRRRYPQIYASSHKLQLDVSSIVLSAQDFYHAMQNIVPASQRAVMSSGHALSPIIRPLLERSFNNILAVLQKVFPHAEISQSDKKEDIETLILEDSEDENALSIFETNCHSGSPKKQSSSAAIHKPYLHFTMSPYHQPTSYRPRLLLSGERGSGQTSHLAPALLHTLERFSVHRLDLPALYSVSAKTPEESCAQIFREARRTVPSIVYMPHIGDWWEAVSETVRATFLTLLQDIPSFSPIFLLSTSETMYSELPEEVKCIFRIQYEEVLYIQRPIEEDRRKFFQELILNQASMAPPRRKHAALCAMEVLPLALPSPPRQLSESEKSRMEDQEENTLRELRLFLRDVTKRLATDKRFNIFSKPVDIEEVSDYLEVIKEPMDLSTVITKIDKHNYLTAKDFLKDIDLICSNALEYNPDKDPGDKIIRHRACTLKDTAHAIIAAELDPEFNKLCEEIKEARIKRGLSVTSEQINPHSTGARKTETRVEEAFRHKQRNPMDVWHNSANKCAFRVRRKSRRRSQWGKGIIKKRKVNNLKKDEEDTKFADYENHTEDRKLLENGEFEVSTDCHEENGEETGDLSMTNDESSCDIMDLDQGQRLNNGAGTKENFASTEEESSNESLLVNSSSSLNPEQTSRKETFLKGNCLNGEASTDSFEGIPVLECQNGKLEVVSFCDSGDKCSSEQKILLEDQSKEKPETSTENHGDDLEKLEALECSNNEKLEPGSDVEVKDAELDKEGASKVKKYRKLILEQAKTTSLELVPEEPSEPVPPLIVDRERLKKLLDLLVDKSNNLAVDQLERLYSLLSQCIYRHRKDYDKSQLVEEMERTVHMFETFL
The experiment can be described thus: Binding affinity to biotinylated ATAD2B (953 to 1086 amino acid residues) (unknown origin) expressed in Rosetta2 DE3 cells by bio-layer interferometry method. (In BLI a coated tip is dipped into the sample, and binding shifts an interference pattern.)

Experiment [3] addresses Histone-lysine N-methyltransferase 2A (Homo sapiens, UniProt Q03164). In words: Binding affinity to biotinylated MLL1 (1566 to 1784 amino acid residues) (unknown origin) expressed in Rosetta2 cells by bio-layer interferometry method.
Experiment [4] concerns the target T1, Bromodomain-containing protein 4. In words: biochemical.
A further experiment concerns MV4-11. In words: cells. The class given is functional, cell-based. The settings on record: Homo sapiens, MV4-11, 96 h.
Experiment [5] has as its target SWI/SNF-related matrix-associated actin-dependent regulator of chromatin subfamily A member 4 (Homo sapiens, UniProt P51532). The experiment can be described thus: Binding affinity to biotinylated BRG1 (59 to 180 amino acid residues) (unknown origin) expressed in Rosetta2 cells by bio-layer interferometry method.
A further experiment addresses CREB-binding protein (Homo sapiens, UniProt Q92793). The experiment can be described thus: Binding affinity to biotinylated CREBBP (1043 to 1159 amino acid residues) (unknown origin) expressed in Rosetta2 DE3 cells by bio-layer interferometry method.

Sequence of CREB-binding protein (Q92793 whole entry, the tested form may be a part): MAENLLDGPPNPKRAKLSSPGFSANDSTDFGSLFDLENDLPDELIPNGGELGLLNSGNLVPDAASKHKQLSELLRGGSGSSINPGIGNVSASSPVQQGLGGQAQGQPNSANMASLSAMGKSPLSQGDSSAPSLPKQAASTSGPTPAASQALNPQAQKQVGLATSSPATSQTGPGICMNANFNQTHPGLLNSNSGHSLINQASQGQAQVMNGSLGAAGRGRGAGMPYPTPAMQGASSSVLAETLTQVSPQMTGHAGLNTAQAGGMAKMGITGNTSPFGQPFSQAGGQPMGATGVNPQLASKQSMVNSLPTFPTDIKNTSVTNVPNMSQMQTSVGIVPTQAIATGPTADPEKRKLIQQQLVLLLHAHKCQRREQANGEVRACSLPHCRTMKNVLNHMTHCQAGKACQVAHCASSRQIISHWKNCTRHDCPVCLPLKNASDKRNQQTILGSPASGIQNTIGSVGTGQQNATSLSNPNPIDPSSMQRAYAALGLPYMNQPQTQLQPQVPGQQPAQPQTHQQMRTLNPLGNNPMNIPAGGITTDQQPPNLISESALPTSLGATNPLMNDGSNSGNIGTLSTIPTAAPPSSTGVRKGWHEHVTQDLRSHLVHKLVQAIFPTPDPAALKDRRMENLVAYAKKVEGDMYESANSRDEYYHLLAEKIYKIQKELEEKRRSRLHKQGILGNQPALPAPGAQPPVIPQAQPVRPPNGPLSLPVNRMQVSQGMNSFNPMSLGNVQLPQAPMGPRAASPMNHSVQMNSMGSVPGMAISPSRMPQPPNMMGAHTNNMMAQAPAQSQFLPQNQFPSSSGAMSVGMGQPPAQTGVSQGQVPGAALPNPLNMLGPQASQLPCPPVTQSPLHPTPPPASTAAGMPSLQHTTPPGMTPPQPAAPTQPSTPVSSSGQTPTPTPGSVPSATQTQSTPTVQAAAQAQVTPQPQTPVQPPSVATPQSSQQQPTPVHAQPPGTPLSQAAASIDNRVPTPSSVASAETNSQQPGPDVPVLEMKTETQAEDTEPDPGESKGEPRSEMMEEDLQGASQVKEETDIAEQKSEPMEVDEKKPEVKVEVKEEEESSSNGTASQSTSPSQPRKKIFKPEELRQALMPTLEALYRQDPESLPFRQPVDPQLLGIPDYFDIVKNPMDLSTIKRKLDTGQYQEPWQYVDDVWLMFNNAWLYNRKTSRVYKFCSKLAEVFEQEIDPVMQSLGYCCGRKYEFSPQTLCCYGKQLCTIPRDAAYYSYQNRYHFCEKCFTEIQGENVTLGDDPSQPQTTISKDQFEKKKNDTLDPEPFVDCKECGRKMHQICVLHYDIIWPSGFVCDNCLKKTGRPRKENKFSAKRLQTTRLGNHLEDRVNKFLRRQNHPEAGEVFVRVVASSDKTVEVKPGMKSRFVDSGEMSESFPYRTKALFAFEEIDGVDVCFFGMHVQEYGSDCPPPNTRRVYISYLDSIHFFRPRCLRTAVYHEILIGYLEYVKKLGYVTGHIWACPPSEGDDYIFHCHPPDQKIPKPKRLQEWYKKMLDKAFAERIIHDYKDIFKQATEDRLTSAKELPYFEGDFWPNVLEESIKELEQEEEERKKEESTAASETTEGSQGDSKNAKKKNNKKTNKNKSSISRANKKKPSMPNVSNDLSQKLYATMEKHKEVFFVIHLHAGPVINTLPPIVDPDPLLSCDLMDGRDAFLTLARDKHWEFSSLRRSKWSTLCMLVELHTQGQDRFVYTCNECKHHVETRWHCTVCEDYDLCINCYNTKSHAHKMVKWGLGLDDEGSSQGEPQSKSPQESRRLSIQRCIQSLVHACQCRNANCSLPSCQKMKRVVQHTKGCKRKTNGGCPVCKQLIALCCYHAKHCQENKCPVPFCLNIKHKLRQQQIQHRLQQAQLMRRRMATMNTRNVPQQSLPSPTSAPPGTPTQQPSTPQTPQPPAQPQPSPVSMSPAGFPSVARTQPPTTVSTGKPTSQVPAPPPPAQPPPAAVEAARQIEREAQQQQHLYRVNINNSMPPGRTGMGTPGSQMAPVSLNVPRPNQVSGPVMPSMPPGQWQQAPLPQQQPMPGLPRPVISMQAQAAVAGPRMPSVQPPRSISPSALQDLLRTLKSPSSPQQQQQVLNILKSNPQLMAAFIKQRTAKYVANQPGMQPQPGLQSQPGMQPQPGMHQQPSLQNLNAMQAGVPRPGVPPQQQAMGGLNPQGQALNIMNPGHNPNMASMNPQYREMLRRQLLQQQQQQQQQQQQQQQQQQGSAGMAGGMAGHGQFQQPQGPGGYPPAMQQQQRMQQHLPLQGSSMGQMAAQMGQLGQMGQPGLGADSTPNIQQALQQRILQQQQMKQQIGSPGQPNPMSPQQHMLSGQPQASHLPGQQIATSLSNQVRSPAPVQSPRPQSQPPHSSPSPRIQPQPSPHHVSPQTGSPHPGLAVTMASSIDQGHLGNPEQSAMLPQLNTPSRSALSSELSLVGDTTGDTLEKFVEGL
Sequence of SWI/SNF-related matrix-associated actin-dependent regulator of chromatin subfamily A member 4 (P51532 whole entry, the tested form may be a part): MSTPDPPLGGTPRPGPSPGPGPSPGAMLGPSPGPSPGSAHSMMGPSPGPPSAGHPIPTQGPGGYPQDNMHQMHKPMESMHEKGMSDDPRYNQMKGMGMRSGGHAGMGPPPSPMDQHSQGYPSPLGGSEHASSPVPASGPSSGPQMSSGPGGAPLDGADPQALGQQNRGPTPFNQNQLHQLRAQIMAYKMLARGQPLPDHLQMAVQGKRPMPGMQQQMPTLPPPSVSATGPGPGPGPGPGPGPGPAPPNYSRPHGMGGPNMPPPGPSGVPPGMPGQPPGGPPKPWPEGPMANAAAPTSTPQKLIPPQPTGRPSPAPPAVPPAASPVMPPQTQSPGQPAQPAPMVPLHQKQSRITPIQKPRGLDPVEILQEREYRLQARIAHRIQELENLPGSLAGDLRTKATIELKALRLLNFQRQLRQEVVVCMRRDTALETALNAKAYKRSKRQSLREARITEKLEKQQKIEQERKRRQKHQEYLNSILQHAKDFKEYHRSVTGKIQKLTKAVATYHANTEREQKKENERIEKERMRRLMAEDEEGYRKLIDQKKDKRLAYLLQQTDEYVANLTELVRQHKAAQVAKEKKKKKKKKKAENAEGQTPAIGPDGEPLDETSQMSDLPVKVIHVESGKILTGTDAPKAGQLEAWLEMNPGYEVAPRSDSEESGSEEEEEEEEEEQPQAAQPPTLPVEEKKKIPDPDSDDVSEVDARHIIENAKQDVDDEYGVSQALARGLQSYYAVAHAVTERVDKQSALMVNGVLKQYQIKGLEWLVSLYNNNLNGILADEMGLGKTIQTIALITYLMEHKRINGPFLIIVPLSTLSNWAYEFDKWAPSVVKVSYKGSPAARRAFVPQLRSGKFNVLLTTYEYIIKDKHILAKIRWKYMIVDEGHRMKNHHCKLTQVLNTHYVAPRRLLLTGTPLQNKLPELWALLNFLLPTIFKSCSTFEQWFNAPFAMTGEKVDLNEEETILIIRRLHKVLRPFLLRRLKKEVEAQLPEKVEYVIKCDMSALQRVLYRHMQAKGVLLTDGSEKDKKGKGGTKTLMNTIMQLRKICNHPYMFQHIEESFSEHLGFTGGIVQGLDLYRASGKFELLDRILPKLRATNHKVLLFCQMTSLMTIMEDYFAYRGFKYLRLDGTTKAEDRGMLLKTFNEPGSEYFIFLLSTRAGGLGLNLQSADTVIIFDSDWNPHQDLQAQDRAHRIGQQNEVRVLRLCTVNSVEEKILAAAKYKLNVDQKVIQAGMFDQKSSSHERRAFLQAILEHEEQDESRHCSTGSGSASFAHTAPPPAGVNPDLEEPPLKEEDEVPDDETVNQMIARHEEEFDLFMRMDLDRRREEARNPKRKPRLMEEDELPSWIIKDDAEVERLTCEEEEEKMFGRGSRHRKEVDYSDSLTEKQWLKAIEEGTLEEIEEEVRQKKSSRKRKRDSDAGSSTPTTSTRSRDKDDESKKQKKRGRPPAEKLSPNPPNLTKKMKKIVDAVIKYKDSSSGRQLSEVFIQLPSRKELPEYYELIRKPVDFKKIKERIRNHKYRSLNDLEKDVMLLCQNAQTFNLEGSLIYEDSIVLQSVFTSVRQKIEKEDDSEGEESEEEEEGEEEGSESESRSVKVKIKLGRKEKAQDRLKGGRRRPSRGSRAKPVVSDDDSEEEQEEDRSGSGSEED

As usually defined, the IC50 is the concentration needed to halve the response being measured. A lower IC50 goes with higher potency. What is called Ki is a measure of affinity in units of concentration, obtained from inhibition or displacement. Higher therefore signals weaker binding. In general, Kd refers to the constant that tells how readily two partners part at equilibrium. The low end stands for tighter binding, the high end for weaker binding. On to `COc1cc2c(cc1-c1c(C)noc1C)[nH]c1ccnc(-c3c(C4CC4)n[nH]c3C)c12`, for which the IC50 in experiment [1] was found to be 75.5 nM; in the experiment with MV4-11, 20 nM. In experiment [1], this molecule displayed a Ki of 24.7 nM. Moreover, the dissociation constant (Kd) in experiment [2] is over 10000 nM; in experiment [3] it was 9500 nM; in experiment [4], 44.6 nM; in experiment [5] it was over 10000 nM; on CREB-binding protein it was 670 nM.

The values above are taken from ChEMBL document CHEMBL3580597 (J Med Chem, 2015).
